In general, EC50 refers to the concentration at which the effect is half-maximal.

The target of one data set is MCL1 protein (Homo sapiens (Human), UniProt Q07820). The data set is described as follows: PIxEL: protein-protein interaction in permeabilized cells by ELISA (MCL1/biotin-BIM BH3 peptide, RKO cells). The data set is classed as cell-based. Conditions: IC50, median, serum free. The protocol: PIxEL: Protein-Protein Interaction in Permeabilized Cells by ELISA
Most MCL1 protein molecules are localized at the mitochondria outer membrane and sequester pro-apoptotic proteins through binding of their BCL2 homology domain 3 (BH3 domain). MEB buffer (150 mM mannitol, 10 mM HEPES pH 7.5, 50 mM KCl, 20 μM EDTA, 20 μM EGTA, 5 mM potassium succinate, 0.1% protease-free BSA (SIGMA) with low dose digitonin (0.002%) permeabilizes plasma membrane while leaves live mitochondria, where MCL1 maintains its native localization and conformation. Unlike biophysical assays (e.g. TR-FRET) that use truncated recombinant MCL1 protein, this assay uses full length endogenous MCL1 protein at mitochondria outer membrane. It measures the interaction between MCL1 protein and biotinylated BIM BH3 peptide. Compounds can compete with BIM BH3 peptide to bind to MCL1 protein.
On day 1, RKO colon cancer cell line cells were plated at 0.8 million cells/ml, 100 μl/well in 96-well flat bottom TC plates (Corning). MCL1 antibody (Santa Cruz sc-12756) were diluted at 200 fold (final concentration 1 μg/ml) in carbonate buffer (Thermo Fisher Scientific, pH 9.6), and 50 μl of diluted antibody was added to each well of high bind ELISA plates ([…]). Each plate was tapped to make sure liquid covering entire bottom of wells and incubate at 37° C. overnight.
On the second day, MCL1 antibody was washed from ELISA plate. 250 μl Odyssey® Blocking Buffer (PBS) (Li-Cor) was added to each well, incubated at room temperature for at least 1 hour, then washed once with 250 μl 1×PBST. Plates with RKO cells were gently washed once with 100 μl/well PBS, once with 100 μl/well MEB buffer without digitonin, then 100 μl of MEB buffer with 0.002% digitonin was gently added to each well. Compounds were added with HP Tecan compound dispenser in 3-fold dilution series, highest dose 30 μM, 10-dose per compound in quadruplicates. Biotin-BIM peptide (synthesized by 21st Century) was added with HP Tecan compound dispenser at 0.2 μM immediately after the addition of compounds. Plates were rocked for 1 hour at room temperature. Then MEB buffer was aspirated and 50 μl of CHAPS buffer (50 mM Tris-Cl, pH 7.4, 150 mM NaCl, 1% CHAPS, 1 mM EDTA, 1 mM EGTA, cOmplete protease inhibitors (Roche), PhosSTOP (Roche)) was added to each well. Plates were rocked for 1 hour at 4° C., then 45 μl cell lysate from each well were transferred to ELISA plates coated with MCL1 antibody. Plates were incubated overnight in the cold room with rocking.
On the third day, ELISA plates were washed once with 250 μl 1×PBST. Streptavidin-poly-HRP (Thermo Fisher Scientific) was diluted to 20 ng/ml in Odyssey blocking buffer plus 0.05% Triton-100, and 100 μl was added to each well of the ELISA plate. Plates were incubated at RT from 1 hour with rocking, then washed with 100 μL 1×PBST for 3 times. Each SuperSignal ELISA Femto Maximum Sensitivity substrate was added to a 50-ml tube and mixed, then 100 μl of mixed substrate was added to each well. Plates were shaken for 1 minute then luminescence was measured by Envision plate reader […]. Signal of each well were normalized by no-compound control and no-cell control. IC50 was calculated using Graphic Pad PRISM software.
(In general: ELISA stands for enzyme-linked immunosorbent assay.)

The subject of the next data set is AMO-1 cells. The data set can be described thus: Antiproliferation assay (CellTiter-Glo, 72 h), AMO-1. The following applies: IC50, median, AMO-1, 72 h, read-out: Antiproli AMO-1 [M] median. The class given is cell-based. Summed up:
(§1)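 CellTiter-Glo luminescence readout; 72 h compound exposure, 37 °C, humidified; rim wells excluded; time-zero reference plate plated in parallel and read identically.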
A general note: In ATP-based viability assays light output follows the ATP content of the culture.

Another data set concerns HMC-1-8 cells. The data set is described as follows: Antiproliferation assay (CellTiter-Glo, 72 h), HMC-1-8. Conditions: IC50, median, HMC-1-8, 72 h, read-out: Antiproli HMC-1-8 [M] median. The data set is classed as cell-based. Summed up: as §1
Data set [1] concerns SUDHL5 cells. The data set can be described thus: Antiproliferation assay (CellTiter-Glo, 72 h), SUDHL5. The data set is classed as cell-based. The following applies: IC50, median; SUDHL5, 72 h; read-out: Antiproli SUDHL5 [M] (median). Summed up:
as §1

For a further data set, the system named is MV-4-11 cells. The data set is described as follows: Antiproliferation assay (CellTiter-Glo, 72 h), MV-4-11. The data set is classed as cell-based. The following applies: IC50, median; MV-4-11, 72 h; read-out: Antiproli MV-4-11 [M] median. The protocol:
(§2) Assessment of the Anti-Proliferative Effect of Compounds in Different Cell Lines
(§3) The impact of compounds on the proliferation of different cell lines was assessed using the CellTiter-Glo® Luminescent Cell Viability reagent from Promega (G7573).
(§4) In parallel, cells were plated in a reference (day 0) plate for time zero determination.
(§5) Rim wells were excluded. The cells were incubated for 72 h hours in a humidified incubator at 37° C. The day 0 plate was measured by adding 30 μL/well of CTG solution (CellTiter-Glo® Luminescent Cell Viability reagent, Promega G7573) to time zero wells in the reference plate followed by a 10 minutes incubation and luminescence reading at 0.1 ms. using the PHERAstar FS microplate reader (BMG Labtech).
(§6) After 72 h incubation, the treated plates were measured in the same way as the day 0 plate mentioned above.

Data set [2] has as its system SUDHL5 cells. The data set is described as follows: Induction of cytotoxicity (CellTiter-Glo, 5 h), SUDHL5. Conditions: read-out: Cytotox SUDHL5 [M] (median); IC50, median; SUDHL5, 5 h.
The test system of data set [3] is SUDHL5 cells. The data set is described as follows: Induction of caspase-3/7 activity (Caspase-Glo 3/7), SUDHL5. The data set is classed as cell-based. The following applies: EC50, median; SUDHL5, 3 h treatment. The procedure, abridged:
(§7)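 Caspase-Glo 3/7 luminescence after 3 h compound treatment, 37 °C, humidified; medium-only background subtracted; rim wells excluded.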

Data set [4] concerns SUDHL10 cells. The data set can be described thus: Induction of caspase-3/7 activity (Caspase-Glo 3/7), SUDHL10. The class given is cell-based. Conditions: EC50, median; SUDHL10, 3 h treatment. Summed up: as §7
For the next data set, the system named is SNU-389 cells. The data set is described as follows: Antiproliferation assay (CellTiter-Glo, 72 h), SNU-389. The class given is cell-based. Conditions: read-out: Antiproli SNU-389 [M] median. As for the experimental part:
as §2, §3, §4, §5, §6

The test system of data set [5] is SUDHL10 cells. The data set is described as follows: Induction of cytotoxicity (CellTiter-Glo, 5 h), SUDHL10. Conditions: read-out: Cytotox SUDHL10 [M] (median); IC50, median; SUDHL10, 5 h.
The next data set concerns the target MCL-1 (Homo sapiens (Human), UniProt Q07820, K194A/K197A/R201A). The data set is described as follows: Protein-protein interaction assay MCL-1/Noxa BH3 peptide (MCL-1 assay), TR-FRET. The class given is binding. Conditions: IC50, median; MCL-1/Noxa BH3 TR-FRET. The protocol: The dose-dependent inhibition by the compounds described in this invention of the interaction between MCL-1 and the BH3 domain of Noxa (both human) was determined using a steady state binding competition assay with time-resolved fluorescence energy transfer (TR-FRET) readout. […] The MBP-MCL-1 was purchased from Beryllium (Bedford, Mass., USA). The expression and purification of this protein construct has been described elsewhere (DOI:10.1371/journal.pone.0125010). The Noxa BH3-derived peptide can be obtained from e.g. Biosyntan (Berlin, Germany), 50812.1.
For that, 100-fold concentrated DMSO solutions were prepared by serial dilutions (1:3.4) of a 2 mM stock solution in a clear, 384-well microtiter plate (Greiner Bio-One, Frickenhausen, Germany). From there, 50 nl were transferred in a dark test plate (Greiner Bio-One, Frickenhausen, Germany). […] This was followed by a 10-minute incubation step at 22° C. for pre-equilibration of the putative complex between MBP-MCL-1 and the compounds.
The mixture was incubated in the dark for one hour at 22° C. and then overnight at 4° C.
The resulting data (ratio) were normalized, taking 0% inhibition as the mean value of control measurements (usually 32 data points) where all reagents were included. In this case 50 nl DMSO were used instead of compounds. […] IC50 values were determined by regression analysis based on a 4 parameter equation (minimum, maximum, IC50, Hill; Y=Max+(Min−Max)/(1+(X/IC50)^Hill) using the Screener Software (Genedata).
A general note: TR-FRET usually uses a lanthanide donor and a delayed reading to cut background.

A further data set relates to DMS-114 cells. The data set can be described thus: Antiproliferation assay (CellTiter-Glo, 72 h), DMS-114. The class given is cell-based. Conditions: Homo sapiens, DMS-114, 72 h; read-out: Antiproli DMS-114 [M] median. As for the experimental part: as §2, §3, §4, §5, §6

Counter-ions that a name gives are not always drawn. Like-named read-outs stand apart in the source and are kept apart here.

Sequence of MCL-1 (Q07820 whole entry K194A/K197A/R201A, looked up, the tested form may be a part): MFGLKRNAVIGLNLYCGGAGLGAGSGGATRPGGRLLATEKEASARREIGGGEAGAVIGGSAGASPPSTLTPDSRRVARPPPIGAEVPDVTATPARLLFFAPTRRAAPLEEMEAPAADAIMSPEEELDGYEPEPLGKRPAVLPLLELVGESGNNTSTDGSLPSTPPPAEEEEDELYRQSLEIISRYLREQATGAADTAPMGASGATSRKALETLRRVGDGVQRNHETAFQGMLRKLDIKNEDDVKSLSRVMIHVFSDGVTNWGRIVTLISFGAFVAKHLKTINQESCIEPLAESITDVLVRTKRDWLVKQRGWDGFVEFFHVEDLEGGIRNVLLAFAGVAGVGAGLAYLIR
Sequence of MCL1 protein (Q07820 whole entry, the tested form may be a part): as the sequence (Q07820 whole entry K194A/K197A/R201A, looked up, the tested form may be a part) above, with A194K, A197K, A201R counted along it

In the case of `Cc1c2c(nn1C)CN(C)CCCCn1c(C(=O)O)c(CCCOc3cccc4cc(F)ccc34)c3ccc(Cl)c-2c31` (racemic) [Example 30, (rac)-4-chloro-7-{3-[(6-fluoronaphthalen-1-yl)oxy]propyl}-2,3,14-trimethyl-10,11,12,13,14,15-hexahydro-2H-pyrazolo[3′,4′:8,9][1,6]diazacycloundecino[10,11,1-hi]indole-8-carboxylic acid], the IC50 against MCL1 protein was 227 nM; in the data set on AMO-1 cells (Homo sapiens, AMO1, 72 h), 4.2e-07 M; in the data set on HMC-1-8 cells (72 h) it was 1.6e-06 M.
For the compound `Cc1c2c(nn1C)CN(C)CCCCn1c(C(=O)O)c(CCCOc3cccc4ccccc34)c3ccc(Cl)c-2c31` (single isomer, unassigned; enantiomer 2) [Example 13, (−)-4-chloro-2,3,14-trimethyl-7-[3-(naphthalen-1-yloxy)propyl]-10,11,12,13,14,15-hexahydro-2H-pyrazolo[3′,4′:8,9][1,6]diazacycloundecino[10,11,1-hi]indole-8-carboxylic acid-N-ethylethanamine salt (Enantiomer 2)], the IC50 in the data set on SUDHL5 cells [1] is 6.4e-06 M; with MV-4-11 cells, 1.22e-05 M; in the data set on SUDHL5 cells [2] it was 6.9e-06 M.
On to `Cc1c2c(nn1C)COCCCCn1c(C(=O)O)c(CCCOc3cccc4cc(F)ccc34)c3ccc(Cl)c-2c31` (single isomer, unassigned; enantiomer 2) [Example 17, (−)-4-chloro-7-{3-[(6-fluoronaphthalen-1-yl)oxy]propyl}-2,3-dimethyl-2,10,11,12,13,15-hexahydropyrazolo[4′,3′:9,10][1,6]oxazacycloundecino[8,7,6-hi]indole-8-carboxylic acid-N-ethylethanamine salt (Enantiomer 2)], for which the concentration for a half-maximal effect (EC50) turned out to be 290 nM with SUDHL5 cells [3] and 380 nM in the data set with SUDHL10 cells [4]. The IC50 stood at 2.1e-07 M in the data set with SUDHL5 cells [1]; 6.7e-06 M in the data set with MV-4-11 cells; 1.2e-06 M with HMC-1-8 cells; 9.86e-07 M in the data set on SNU-389 cells (IC50, median, SNU-389, 72 h); 2.2e-07 M with SUDHL5 cells [2]; 6.6e-07 M with SUDHL10 cells [5].
With `Cc1c2c(nn1C)COCCCCn1c(C(=O)O)c(CCCOc3cccc4ccccc34)c3ccc(Cl)c-2c31` (single isomer, unassigned; enantiomer 2) [Example 27, 4-chloro-2,3-dimethyl-7-[3-(naphthalen-1-yloxy)propyl]-2,10,11,12,13,15-hexahydropyrazolo-[4′,3′:9,10][1,6]oxazacycloundecino[8,7,6-hi]indole-8-carboxylic acid-N-ethylethanamine salt (Enantiomer 2)], the IC50 with SUDHL5 cells [1] was found to be 7.8e-06 M; in the data set on MV-4-11 cells it was 1.61e-05 M.
In the case of `CCc1c2c(nn1C)CN(CCN1CCOCC1)CCCCn1c(C(=O)O)c(CCCOc3cccc4cc(F)ccc34)c3ccc(Cl)c-2c31` (single isomer, unassigned; enantiomer 2) [Example 143, 4-chloro-3-ethyl-7-{3-[(6-fluoronaphthalen-1-yl)oxy]propyl}-2-methyl-14-[2-(morpholin-4-yl)ethyl]-10,11,12,13,14,15-hexahydro-2H-pyrazolo[3′,4′:8,9][1,6]diazacycloundecino[10,11,1-hi]indole-8-carboxylic acid (Enantiomer 2)], the figures for the IC50 against MCL-1 and in the data set on SUDHL5 cells [1] were 62 nM and 9.4e-06 M, respectively.
As for `CCc1c2c(nn1C)COCC(O)CCn1c(C(=O)O)c(CCCOc3cccc4cc(F)ccc34)c3ccc(Cl)c-2c31` (stereo not drawn) [Example 100, 4-chloro-3-ethyl-7-{3-[(6-fluoronaphthalen-1-yl)oxy]propyl}-12-hydroxy-2-methyl-2,10,11,12,13,15-hexahydropyrazolo[4′,3′:9,10][1,6]oxazacycloundecino[8,7,6-hi]indole-8-carboxylic acid-N-ethylethanamine salt], the EC50 in the data set on SUDHL5 cells [3] came out at 220 nM; in the data set with SUDHL10 cells [4] it was 120 nM. In addition, the IC50 in the data set on SUDHL5 cells [1] was 1.9e-07 M; in the data set on AMO-1 cells it was 6.7e-07 M; with HMC-1-8 cells, 5e-06 M; in the data set with SNU-389 cells (72 h), 1.18e-06 M; in the data set on DMS-114 cells it was 1.85e-07 M; with SUDHL5 cells [2], 1.8e-07 M. The IC50 with SUDHL10 cells [5] was 1.8e-07 M.
